Measured values taken from patent US20040097573A1, “Use of a COX-2 inhibitor and a NK-1 receptor antagonist for treating inflammation” (priority 1998, published 2004).

Columns and labels:
[1] = test system: foot tapping in gerbils induced by central infusion of NK-1 receptor agonists such as GR73632; test: Gerbil foot-tapping (Assay 2); type: in vivo, Mongolian gerbils; conditions: i.v.
Excerpt: ASSAY 2: Gerbil Foot-Tapping
CNS-penetrant NK-1 receptor antagonists for use in the present invention can be identified by their ability to inhibit foot tapping in gerbils induced by central infusion of NK-1 receptor agonists such as GR73632, based on the method of Rupniak & Williams, Eur. J. Pharmacol., 1994, 265, 179.
Male or female Mongolian gerbils (35-70 g) are anaesthetised by inhalation of an isoflurane/oxygen mixture to permit exposure of the jugular vein in order to permit administration of test compounds or vehicle in an injection volume of approximately 5 ml/kg i.v. Alternatively, test compounds may be administered orally or by subcutaneous or intraperitoneal routes. A skin incision is then made in the midline of the scalp to expose the skull. The selective NK-1 receptor agonist (e.g. GR73632 (d Ala[L-Pro^9,Me-Leu^10]-substance P-(7-11)) is infused directly into the cerebral ventricles (e.g. 3 pmol in 5 μl i.c.v., depending on test substance) by vertical insertion of a cuffed 27 gauge needle to a depth of 4.5 mm below bregma. The scalp incision is closed and the animal allowed to recover from anaesthesia in a clear perspex observation box (approximately 25 cm×20 cm×20 cm). The duration and/or intensity of hind foot tapping is then recorded continuously for approximately 5 minutes.

[2] = test system: cisplatin-induced emesis in ferrets; test: Ferret emesis (Assay 3); type: in vivo; conditions: p.o.
Procedure: ASSAY 3: Ferret Emesis Individually housed male ferrets (1.0-2.5 kg) are dosed orally by gavage with test compound. Ten minutes later they are fed with approximately 100 g of tinned cat food. At 60 minutes following oral dosing, cisplatin (10 mg/kg) is given i.v. via a jugular vein catheter inserted under a brief period of halothane anaesthesia. The catheter is then removed, the jugular vein ligated and the skin incision closed. The ferrets recover rapidly from the anaesthetic and are mobile within 10-20 minutes. The animals are observed continuously during recovery from the anaesthetic and for 4 hours following the cisplatin injection, after which time the animals are killed humanely. The numbers of retches and vomits occurring during the 4 hours after cisplatin administration are recorded by trained observers.

| SMILES | gerbil foot-tapping (5 mins.) ID50 [1] | gerbil foot-tapping (24 hrs.) ID50 [1] | ferret emesis ID90 [2] |
| --- | --- | --- | --- |
| C[C@@H](O[C@H]1OCCN(Cc2n[nH]c(=O)[nH]2)[C@H]1c1ccc(F)cc1)c1cc(C(F)(F)F)cc(C(F)(F)F)c1 [2-(R)-(1-(R)-(3,5-bis(trifluoromethyl)phenyl)-ethoxy)-3-(S)-(4-fluorophenyl)-4-(3-(5-oxo-1H,4H-1,2,4-triazolo)methyl)-morpholine] | ID50 = 0.36 mg/kg i.v. | ID50 = 0.33 mg/kg i.v. | ID90 < 3 mg/kg p.o. |
| C[C@@H](O[C@H]1OCCN(Cc2nn[nH]c2CN(C)C)[C@H]1c1ccccc1)c1cc(C(F)(F)F)cc(C(F)(F)F)c1 [2-(R)-(1-(R)-(3,5-bis(trifluoromethyl)phenyl)ethoxy)-4-(5-(N,N-dimethylamino)methyl-1,2,3-triazol-4-yl)methyl-3-(S)-phenylmorpholine] | ID50 = 0.12 mg/kg i.v. | ID50 = 0.17 mg/kg i.v. |  |
